Here are results for 29 compounds from ChEMBL document CHEMBL1121427, “Decomposition of pharmacological activity indices into mutually independent components using principal component analysis” (J Med Chem, 1980).

Common to all, as to format: functional
Parameters in all cases: unit not given here

The test system of one experiment is Bacillus subtilis. Description: Inhibitory activity against Bacillus subtilis.
Another experiment relates to Staphylococcus aureus. Description: The compound was evaluated for activity against strain Micrococcus aureus.
Another experiment deals with Streptococcus pyogenes. Description: The compound was evaluated for activity against strain Streptococcus hemolyticus.
Another experiment deals with Enterococcus faecalis. Description: The compound was evaluated for activity against strain Streptococcus faecalis.

Take `COC1/C=C/OC2(C)Oc3c(C)c(O)c4c(O)c(cc(OCC(=O)NC(C)(C)C)c4c3C2=O)NC(=O)/C(C)=C\C=C\C(C)C(O)C(C)C(O)C(C)C(OC(C)=O)C1C` (stereo unspecified): the “-Log C” value is 5.42 in the experiment with Bacillus subtilis, 6.73 in the experiment on Staphylococcus aureus, 6.43 in the experiment with Streptococcus pyogenes and 5.83 in the experiment on Enterococcus faecalis.

On to `COC1/C=C/OC2(C)Oc3c(C)c(O)c4c(O)c(cc(OCC(=O)Nc5ccccc5)c4c3C2=O)NC(=O)/C(C)=C\C=C\C(C)C(O)C(C)C(O)C(C)C(OC(C)=O)C1C` (stereo unspecified), for which the “-Log C” value with Bacillus subtilis turned out to be 5.43; in the experiment with Staphylococcus aureus, 6.92; with Streptococcus pyogenes, 6.84; in the experiment with Enterococcus faecalis, 6.04.

As for `CCCNC(=O)COc1cc2c(O)c3c(O)c(C)c4c(c13)C(=O)C(C)(O/C=C/C(OC)C(C)C(OC(C)=O)C(C)C(O)C(C)C(O)C(C)/C=C/C=C(/C)C(=O)N2)O4` (stereo unspecified), the “-Log C” value in the experiment on Bacillus subtilis was found to be 5.41; with Staphylococcus aureus, 6.5; with Streptococcus pyogenes, 6.42; with Enterococcus faecalis, 5.82.

As to `CCN(C)C(=O)COc1cc2c(O)c3c(O)c(C)c4c(c13)C(=O)C(C)(O/C=C/C(OC)C(C)C(OC(C)=O)C(C)C(O)C(C)C(O)C(C)/C=C/C=C(/C)C(=O)N2)O4` (stereo unspecified), the “-Log C” value in the experiment on Bacillus subtilis is reported as 6.03; in the experiment on Staphylococcus aureus, 7.95; in the experiment on Streptococcus pyogenes, 7.95; with Enterococcus faecalis, 7.06.

Turning to `CCNC(=O)COc1cc2c(O)c3c(O)c(C)c4c(c13)C(=O)C(C)(O/C=C/C(OC)C(C)C(OC(C)=O)C(C)C(O)C(C)C(O)C(C)/C=C/C=C(/C)C(=O)N2)O4` (stereo unspecified), the “-Log C” value worked out at 5.4 with Bacillus subtilis, 6.99 in the experiment on Staphylococcus aureus, 7.5 with Streptococcus pyogenes and 6.2 in the experiment on Enterococcus faecalis.

On to `CCCN(C)C(=O)COc1cc2c(O)c3c(O)c(C)c4c(c13)C(=O)C(C)(O/C=C/C(OC)C(C)C(OC(C)=O)C(C)C(O)C(C)C(O)C(C)/C=C/C=C(/C)C(=O)N2)O4` (stereo unspecified), for which the “-Log C” value came to 6.65 in the experiment on Bacillus subtilis, 7.91 in the experiment on Staphylococcus aureus, 8.13 with Streptococcus pyogenes and 7.31 in the experiment on Enterococcus faecalis.

`COC1/C=C/OC2(C)Oc3c(C)c(O)c4c(O)c(cc(OCC(=O)N5C(C)CCC5C)c4c3C2=O)NC(=O)/C(C)=C\C=C\C(C)C(O)C(C)C(O)C(C)C(OC(C)=O)C1C` (stereo unspecified): the “-Log C” value is 6.67 in the experiment on Bacillus subtilis, 8.22 with Staphylococcus aureus, 8.22 with Streptococcus pyogenes and 7.45 in the experiment on Enterococcus faecalis.

In the case of `C=CCN(CC=C)C(=O)COc1cc2c(O)c3c(O)c(C)c4c(c13)C(=O)C(C)(O/C=C/C(OC)C(C)C(OC(C)=O)C(C)C(O)C(C)C(O)C(C)/C=C/C=C(/C)C(=O)N2)O4` (stereo unspecified), the “-Log C” value is on record as 6.67 in the experiment with Bacillus subtilis, 8.22 in the experiment with Staphylococcus aureus, 8.44 in the experiment on Streptococcus pyogenes and 7.22 in the experiment with Enterococcus faecalis.

With `COC1/C=C/OC2(C)Oc3c(C)c(O)c4c(O)c(cc(OCC(=O)N(CCCl)CCCl)c4c3C2=O)NC(=O)/C(C)=C\C=C\C(C)C(O)C(C)C(O)C(C)C(OC(C)=O)C1C` (stereo unspecified), the “-Log C” value amounted to 6.38 in the experiment on Bacillus subtilis, 7.24 in the experiment on Staphylococcus aureus, 7.47 with Streptococcus pyogenes and 5.77 with Enterococcus faecalis.

As for `CCCN(CC)C(=O)COc1cc2c(O)c3c(O)c(C)c4c(c13)C(=O)C(C)(O/C=C/C(OC)C(C)C(OC(C)=O)C(C)C(O)C(C)C(O)C(C)/C=C/C=C(/C)C(=O)N2)O4` (stereo unspecified), the “-Log C” value with Bacillus subtilis turned out to be 6.35; in the experiment on Staphylococcus aureus it was 8.01; with Streptococcus pyogenes, 8.22; with Enterococcus faecalis, 7.22.

Consider `COC1/C=C/OC2(C)Oc3c(C)c(O)c4c(O)c(cc(OCC(=O)N(C)C(C)(C)C)c4c3C2=O)NC(=O)/C(C)=C\C=C\C(C)C(O)C(C)C(O)C(C)C(OC(C)=O)C1C` (stereo unspecified), for which the “-Log C” value in the experiment on Bacillus subtilis stood at 6.66; in the experiment on Staphylococcus aureus, 8.62; in the experiment with Streptococcus pyogenes it was 8.31; with Enterococcus faecalis, 7.62.

Consider `COC1/C=C/OC2(C)Oc3c(C)c(O)c4c(O)c(cc(OCC(=O)N5CCCC5)c4c3C2=O)NC(=O)/C(C)=C\C=C\C(C)C(O)C(C)C(O)C(C)C(OC(C)=O)C1C` (stereo unspecified), for which the “-Log C” value worked out at 5.73 in the experiment on Bacillus subtilis, 7.26 in the experiment on Staphylococcus aureus, 8.21 in the experiment on Streptococcus pyogenes and 6.34 in the experiment on Enterococcus faecalis.

As to `COC1/C=C/OC2(C)Oc3c(C)c(O)c4c(O)c(cc(OCC(=O)N5CCCCC5)c4c3C2=O)NC(=O)/C(C)=C\C=C\C(C)C(O)C(C)C(O)C(C)C(OC(C)=O)C1C` (stereo unspecified), the “-Log C” value in the experiment with Bacillus subtilis amounted to 6.04; in the experiment with Staphylococcus aureus, 8.01; with Streptococcus pyogenes, 8.22; in the experiment with Enterococcus faecalis, 6.92.

On to `COC1/C=C/OC2(C)Oc3c(C)c(O)c4c(O)c(cc(OCC(=O)Nc5ccc(Br)cc5)c4c3C2=O)NC(=O)/C(C)=C\C=C\C(C)C(O)C(C)C(O)C(C)C(OC(C)=O)C1C` (stereo unspecified), for which the “-Log C” value in the experiment with Bacillus subtilis stood at 5.78; with Staphylococcus aureus, 6.48; in the experiment with Streptococcus pyogenes it was 6.66; with Enterococcus faecalis it was 6.56.

On to `CCCN(CCC)C(=O)COc1cc2c(O)c3c(O)c(C)c4c(c13)C(=O)C(C)(O/C=C/C(OC)C(C)C(OC(C)=O)C(C)C(O)C(C)C(O)C(C)/C=C/C=C(/C)C(=O)N2)O4` (stereo unspecified), for which the “-Log C” value with Bacillus subtilis worked out at 6.53; with Staphylococcus aureus, 8.15; in the experiment with Streptococcus pyogenes, 8.15; in the experiment on Enterococcus faecalis, 7.15.

For `COC1/C=C/OC2(C)Oc3c(C)c(O)c4c(O)c(cc(OCC(=O)N5CCC(C)CC5)c4c3C2=O)NC(=O)/C(C)=C\C=C\C(C)C(O)C(C)C(O)C(C)C(OC(C)=O)C1C` (stereo unspecified), the “-Log C” value with Bacillus subtilis is 6.36; in the experiment on Staphylococcus aureus, 8.22; in the experiment with Streptococcus pyogenes it was 7.92; with Enterococcus faecalis, 7.27.

`COC1/C=C/OC2(C)Oc3c(C)c(O)c4c(O)c(cc(OCC(=O)N(C)C)c4c3C2=O)NC(=O)/C(C)=C\C=C\C(C)C(O)C(C)C(O)C(C)C(OC(C)=O)C1C` (stereo unspecified): the “-Log C” value was 5.72 in the experiment on Bacillus subtilis, 7.12 in the experiment with Staphylococcus aureus, 7.89 with Streptococcus pyogenes and 6.02 in the experiment with Enterococcus faecalis.

On to `CCCCN(C)C(=O)COc1cc2c(O)c3c(O)c(C)c4c(c13)C(=O)C(C)(O/C=C/C(OC)C(C)C(OC(C)=O)C(C)C(O)C(C)C(O)C(C)/C=C/C=C(/C)C(=O)N2)O4` (stereo unspecified), for which the “-Log C” value in the experiment on Bacillus subtilis stood at 6.35; in the experiment on Staphylococcus aureus, 8.44; in the experiment on Streptococcus pyogenes it was 8.62; with Enterococcus faecalis, 7.22.

Turning to `COC1/C=C/OC2(C)Oc3c(C)c(O)c4c(O)c(cc(OCC(=O)N(c5ccccc5)c5ccccc5)c4c3C2=O)NC(=O)/C(C)=C\C=C\C(C)C(O)C(C)C(O)C(C)C(OC(C)=O)C1C` (stereo unspecified), the “-Log C” value is reported as 7.05 in the experiment on Bacillus subtilis, 8.65 in the experiment on Staphylococcus aureus, 7.55 with Streptococcus pyogenes and 7.65 with Enterococcus faecalis.

As for `COC1/C=C/OC2(C)Oc3c(C)c(O)c4c(O)c(cc(OCC(=O)NC(C)C)c4c3C2=O)NC(=O)/C(C)=C\C=C\C(C)C(O)C(C)C(O)C(C)C(OC(C)=O)C1C` (stereo unspecified), the “-Log C” value in the experiment with Bacillus subtilis stood at 5.41; with Staphylococcus aureus, 6.7; with Streptococcus pyogenes it was 7.12; in the experiment with Enterococcus faecalis it was 5.9.

In the case of `COC1/C=C/OC2(C)Oc3c(C)c(O)c4c(O)c(cc(OCC(=O)N(C)C5CCCCC5)c4c3C2=O)NC(=O)/C(C)=C\C=C\C(C)C(O)C(C)C(O)C(C)C(OC(C)=O)C1C` (stereo unspecified), the “-Log C” value is given as 6.68 in the experiment on Bacillus subtilis, 8.15 with Staphylococcus aureus, 7.98 in the experiment on Streptococcus pyogenes and 7.53 with Enterococcus faecalis.

In the case of `COC1/C=C/OC2(C)Oc3c(C)c(O)c4c(O)c(cc(OCC(=O)N(C)CCO)c4c3C2=O)NC(=O)/C(C)=C\C=C\C(C)C(O)C(C)C(O)C(C)C(OC(C)=O)C1C` (stereo unspecified), the “-Log C” value with Bacillus subtilis is 5.23; in the experiment on Staphylococcus aureus, 6.93; in the experiment with Streptococcus pyogenes it was 7.15; with Enterococcus faecalis, 5.85.

On to `CNC(=O)COc1cc2c(O)c3c(O)c(C)c4c(c13)C(=O)C(C)(O/C=C/C(OC)C(C)C(OC(C)=O)C(C)C(O)C(C)C(O)C(C)/C=C/C=C(/C)C(=O)N2)O4` (stereo unspecified), for which the “-Log C” value in the experiment on Bacillus subtilis was determined as 7.11; with Staphylococcus aureus it was 6.68; with Streptococcus pyogenes, 5.09; with Enterococcus faecalis it was 5.89.

In the case of `COC1/C=C/OC2(C)Oc3c(C)c(O)c4c(O)c(cc(OCC(N)=O)c4c3C2=O)NC(=O)/C(C)=C\C=C\C(C)C(O)C(C)C(O)C(C)C(OC(C)=O)C1C` (stereo unspecified), the “-Log C” value in the experiment on Bacillus subtilis is 4.78; with Staphylococcus aureus, 5.7; in the experiment with Streptococcus pyogenes, 6.62; in the experiment with Enterococcus faecalis, 4.91.

Take `COC1/C=C/OC2(C)Oc3c(C)c(O)c4c(O)c(cc(OCC(=O)N(CC(C)C)CC(C)C)c4c3C2=O)NC(=O)/C(C)=C\C=C\C(C)C(O)C(C)C(O)C(C)C(OC(C)=O)C1C` (stereo unspecified): the “-Log C” value with Bacillus subtilis was 7.28; in the experiment on Staphylococcus aureus, 8.86; in the experiment with Streptococcus pyogenes it was 8.16; in the experiment with Enterococcus faecalis it was 7.86.

Regarding `CCCCN(CC)C(=O)COc1cc2c(O)c3c(O)c(C)c4c(c13)C(=O)C(C)(O/C=C/C(OC)C(C)C(OC(C)=O)C(C)C(O)C(C)C(O)C(C)/C=C/C=C(/C)C(=O)N2)O4` (stereo unspecified), the “-Log C” value is reported as 6.27 with Bacillus subtilis, 8.62 with Staphylococcus aureus, 8.15 in the experiment with Streptococcus pyogenes and 7.62 in the experiment on Enterococcus faecalis.

As to `COC1/C=C/OC2(C)Oc3c(C)c(O)c4c(O)c(cc(OCC(=O)N(C)Cc5ccccc5)c4c3C2=O)NC(=O)/C(C)=C\C=C\C(C)C(O)C(C)C(O)C(C)C(OC(C)=O)C1C` (stereo unspecified), the “-Log C” value in the experiment on Bacillus subtilis is 6.37; in the experiment on Staphylococcus aureus it was 8.24; with Streptococcus pyogenes it was 8.16; with Enterococcus faecalis, 7.09.

In the case of `COC1/C=C/OC2(C)Oc3c(C)c(O)c4c(O)c(cc(OCC(=O)Nc5ccc(Cl)cc5)c4c3C2=O)NC(=O)/C(C)=C\C=C\C(C)C(O)C(C)C(O)C(C)C(OC(C)=O)C1C` (stereo unspecified), the “-Log C” value came out at 5.64 with Bacillus subtilis, 6.54 in the experiment on Staphylococcus aureus, 6.86 in the experiment on Streptococcus pyogenes and 6.39 in the experiment on Enterococcus faecalis.

On to `CCN(C(=O)COc1cc2c(O)c3c(O)c(C)c4c(c13)C(=O)C(C)(O/C=C/C(OC)C(C)C(OC(C)=O)C(C)C(O)C(C)C(O)C(C)/C=C/C=C(/C)C(=O)N2)O4)c1ccccc1` (stereo unspecified), for which the “-Log C” value worked out at 6.37 with Bacillus subtilis, 8.46 in the experiment with Staphylococcus aureus, 8.16 in the experiment with Streptococcus pyogenes and 7.33 in the experiment with Enterococcus faecalis.
